Test results published in the supplement of paper PMC10307832.

Key:
Experiment in all cases: relative viability (nuclei count vs DMSO), 5 days (fraction); higher = more cells survive
[1] = compound: Cn1c(Nc2ccc(C(F)(F)F)cc2)nc2cc(Oc3ccnc(-c4ncc(C(F)(F)F)[nH]4)c3)ccc21 [RAF265] + Cc1nc(Nc2ncc(C(=O)Nc3c(C)cccc3Cl)s2)cc(N2CCN(CCO)CC2)n1 [Dasatinib] (partner 0.075 µM)
How it was run: (§1)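 Five library-drug doses in √10 steps were combined with a fixed anchor-drug dose, or a single drug was given alone, by pin tool to lung cancer cell lines in 1536-well plates the day after seeding. Nuclei were stained and counted after 5 days. Relative viability is the nuclei count in treated wells over that in vehicle wells, taken as the median of duplicate plates.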

[2] = compound: Cc1ccc(-n2nc(C(C)(C)C)cc2NC(=O)Nc2ccc(OCCN3CCOCC3)c3ccccc23)cc1 [Doramapimod] + COc1cc2c(Oc3ccc(NC(=O)C4(C(=O)Nc5ccc(F)cc5)CC4)cc3F)ccnc2cc1OCCCN1CCOCC1 [Foretinib] (partner 0.25 µM)
How it was run: as §1

[3] = compound: Cc1ccc(-n2nc(C(C)(C)C)cc2NC(=O)Nc2ccc(OCCN3CCOCC3)c3ccccc23)cc1 [Doramapimod] + Nc1nc2[nH]cc(CCc3ccc(C(=O)N[C@@H](CCC(=O)O)C(=O)O)cc3)c2c(=O)[nH]1 [Pemetrexed] (partner 0.2 µM)
How it was run: as §1

[4] = compound: Cn1c(Nc2ccc(C(F)(F)F)cc2)nc2cc(Oc3ccnc(-c4ncc(C(F)(F)F)[nH]4)c3)ccc21 [RAF265] + Nc1nc2[nH]cc(CCc3ccc(C(=O)N[C@@H](CCC(=O)O)C(=O)O)cc3)c2c(=O)[nH]1 [Pemetrexed] (partner 0.2 µM)
How it was run: as §1

Row | Cell Line | relative viability ([1]; first compound 0.01 µM) | relative viability ([1]; first compound 0.03162 µM) | relative viability ([1]; first compound 0.1 µM) | relative viability ([1]; first compound 0.3162 µM) | relative viability ([1]; first compound 1 µM) | relative viability ([2]; first compound 0.02 µM) | relative viability ([2]; first compound 0.06325 µM) | relative viability ([2]; first compound 0.2 µM) | relative viability ([2]; first compound 0.6325 µM) | relative viability ([2]; first compound 2 µM) | relative viability ([3]; first compound 0.02 µM) | relative viability ([3]; first compound 0.06325 µM) | relative viability ([3]; first compound 0.2 µM) | relative viability ([3]; first compound 0.6325 µM) | relative viability ([3]; first compound 2 µM) | relative viability ([4]; first compound 0.01 µM) | relative viability ([4]; first compound 0.03162 µM) | relative viability ([4]; first compound 0.1 µM) | relative viability ([4]; first compound 0.3162 µM) | relative viability ([4]; first compound 1 µM)
1 | NCI-H358 | 0.179 | 0.217 | 0.16 | 0.171 | 0.0873 | 0.579 | 0.563 | 0.682 | 0.826 | 0.63 | 0.176 | 0.167 | 0.162 | 0.169 | 0.175 | 0.159 | 0.165 | 0.151 | 0.149 | 0.147
2 | NCI-H441 | 0.692 | 0.773 | 0.518 | 0.431 | 0.496 | 1.02 | 0.654 | 0.909 |  | 0.842 | 0.252 | 0.244 | 0.251 | 0.268 | 0.268 | 0.267 | 0.251 | 0.258 | 0.223 | 0.224
3 | NCI-H460 | 0.686 | 0.535 | 0.596 | 0.371 | 0.266 | 1.08 | 1.04 | 1.02 | 1.17 | 0.973 | 0.0629 | 0.0546 | 0.0497 | 0.0506 | 0.0521 | 0.0601 | 0.0679 | 0.0652 | 0.0628 | 0.0612
4 | NCI-H520 | 0.177 | 0.206 | 0.197 | 0.187 | 0.171 | 0.63 | 0.864 | 0.656 | 0.674 | 0.498 | 0.607 | 0.638 | 0.732 | 0.537 | 0.683 | 0.637 | 0.536 | 0.629 | 0.507 | 0.36
5 | NCI-H596 | 0.63 | 0.76 | 0.582 | 0.612 | 0.366 | 0.907 | 0.766 | 1.01 | 0.782 | 0.855 | 0.484 | 0.52 | 0.468 | 0.522 | 0.479 | 0.565 | 0.504 | 0.474 | 0.538 | 0.448
6 | NCI-H647 | 0.197 | 0.132 | 0.242 | 0.0861 | 0.0896 | 0.903 | 1.07 | 1.25 | 1.29 | 1.16 | 0.195 | 0.138 | 0.15 | 0.168 | 0.152 | 0.156 | 0.161 | 0.174 | 0.142 | 0.178
7 | NCI-H650 | 0.464 | 0.429 | 0.369 | 0.265 | 0.259 | 1.07 | 1.12 | 1.18 | 1.08 | 1.03 | 0.741 | 0.938 | 0.976 | 1.06 | 0.9 | 0.96 | 0.76 | 0.734 | 0.573 | 0.505
8 | NCI-H661 | 0.925 | 0.771 | 0.546 | 0.598 | 0.42 | 1.05 | 1 | 1.02 | 1.04 | 0.989 | 1.05 | 0.861 | 0.923 | 0.96 | 0.901 | 0.941 | 0.873 | 0.835 | 0.701 | 0.615
9 | NCI-H838 | 0.332 | 0.3 | 0.288 | 0.256 | 0.256 | 1.01 | 0.993 | 1.08 | 1.21 | 1.01 | 0.238 | 0.252 | 0.276 | 0.263 | 0.246 | 0.269 | 0.269 | 0.265 | 0.299 | 0.237
10 | NCI-H1355 | 0.804 | 0.709 | 0.545 | 0.601 | 0.264 | 0.95 | 0.986 | 0.922 | 0.972 | 0.939 | 1.06 | 1.04 | 0.999 | 1.05 | 0.894 | 1.05 | 1.02 | 0.972 | 0.96 | 0.714
11 | NCI-H1395 | 0.449 | 0.432 | 0.395 | 0.336 | 0.372 | 0.948 | 0.925 | 0.991 | 0.991 | 0.933 | 0.82 | 1.04 | 0.889 | 0.836 | 0.696 | 0.893 | 0.878 | 0.824 | 0.65 | 0.683
12 | NCI-H1437 | 0.451 | 0.416 | 0.403 | 0.397 | 0.395 | 1.37 | 1.39 | 1.35 | 1.38 | 1.2 | 0.291 | 0.287 | 0.323 | 0.329 | 0.302 | 0.346 | 0.296 | 0.326 | 0.285 | 0.278
13 | NCI-H1563 | 0.469 | 0.482 | 0.508 | 0.45 | 0.441 | 0.847 | 1 | 0.962 | 0.966 | 1.08 | 0.83 | 0.768 | 0.811 | 1.13 | 0.787 | 0.943 | 0.886 | 0.77 | 0.779 | 0.699
14 | NCI-H1650 | 0.413 | 0.392 | 0.342 | 0.399 | 0.282 | 1.06 | 1.26 | 1.36 | 1.41 | 1.21 | 0.345 | 0.357 | 0.447 | 0.387 | 0.375 | 0.336 | 0.362 | 0.431 | 0.324 | 0.369
15 | NCI-H1651 | 0.417 | 0.408 | 0.368 | 0.398 | 0.263 | 0.912 | 0.777 | 0.841 | 0.793 | 0.869 | 0.576 | 0.731 | 0.594 | 0.658 | 0.595 | 0.587 | 0.567 | 0.431 | 0.494 | 0.532
16 | NCI-H1666 | 0.868 | 0.814 | 0.768 | 0.87 | 0.781 | 0.948 | 1.05 | 1.02 | 1.08 | 0.971 | 0.841 | 0.916 | 0.819 | 0.948 | 0.913 | 0.787 | 0.782 | 0.904 | 0.888 | 0.754
17 | NCI-H1734 | 0.482 | 0.373 | 0.369 | 0.358 | 0.266 | 0.808 | 0.805 | 0.802 | 0.767 | 0.598 | 0.416 | 0.431 | 0.419 | 0.382 | 0.39 | 0.386 | 0.43 | 0.469 | 0.507 | 0.417
18 | NCI-H1755 | 0.404 | 0.427 | 0.33 | 0.294 | 0.195 | 0.984 | 0.928 | 0.93 | 0.892 | 0.866 | 0.328 | 0.371 | 0.435 | 0.394 | 0.35 | 0.771 | 0.361 | 0.503 | 0.519 | 0.497
19 | NCI-H1793 | 0.486 | 0.401 | 0.361 |  | 0.227 | 0.618 | 0.752 | 0.822 | 0.865 | 0.597 | 0.885 | 0.963 | 0.957 | 0.918 | 0.657 | 1.07 | 0.774 | 0.553 | 0.234 | 0.412
20 | NCI-H1915 | 0.342 | 0.332 | 0.213 | 0.151 | 0.137 | 1.02 | 1.13 | 1.18 | 1.12 | 0.995 | 0.452 | 0.464 | 0.498 | 0.699 | 0.419 | 0.463 | 0.419 | 0.486 | 0.406 | 0.361
21 | NCI-H1944 | 0.284 | 0.277 | 0.225 | 0.178 | 0.19 | 0.782 | 0.918 | 0.883 | 0.957 | 0.715 | 0.573 | 0.623 | 0.503 | 0.595 | 0.572 | 0.849 | 0.859 | 0.632 | 0.405 | 0.472
22 | NCI-H1975 | 0.335 | 0.226 | 0.237 | 0.177 | 0.124 | 0.961 | 0.965 | 0.952 | 0.988 | 0.924 | 0.305 | 0.276 | 0.304 | 0.293 | 0.282 | 0.307 | 0.256 | 0.234 | 0.203 | 0.19
23 | NCI-H1993 | 0.618 | 0.497 | 0.545 | 0.619 | 0.528 | 0.844 | 0.759 | 0.808 | 0.778 | 0.68 | 0.627 | 0.517 | 0.504 | 0.658 | 0.558 | 0.548 | 0.605 | 0.508 | 0.51 | 0.581
24 | NCI-H2009 | 0.3 | 0.262 | 0.227 | 0.214 | 0.147 | 1.21 | 1.25 | 1.21 | 1.36 | 1.2 | 1.03 | 1.04 | 1.06 | 1.01 | 1 | 1.01 | 0.955 | 1.02 | 0.965 | 0.885
25 | NCI-H2023 | 0.601 | 0.562 | 0.516 | 0.419 | 0.365 | 0.833 | 0.732 | 0.691 | 0.823 | 0.605 | 0.215 | 0.219 | 0.226 | 0.259 | 0.215 | 0.21 | 0.251 | 0.21 | 0.251 | 0.236
26 | NCI-H2085 | 0.241 | 0.315 | 0.289 | 0.205 | 0.276 | 1.03 | 0.85 | 0.707 | 1.21 | 1.03 | 0.938 | 0.972 | 0.926 | 1.07 | 0.657 | 1.09 | 0.768 | 0.938 | 0.806 | 0.903
